The test system of one assay is mitotic cells. Kind of assay: Induction of chromosome fragmentation (fragmentation index, cytogenetic scoring). It counts as cell-based. As for the experimental part:
Induction of chromosome fragmentation. After 3 to 8 h treatment of colcemid, mitotic cells were gently shaken off and resuspended in culture medium containing colcemid. Cells were then treated with doxorubicin or methotrexate at 1 μg/mL for various times. Cytogenetic examination. Cells were harvested and cytogenetic slides were prepared using standard protocols. Slides were stained by Giemsa for scoring nuclear structures or stored at −20° C. for further characterization including spectral karyotyping (SKY) and antibody staining. The fragmentation index was determined by dividing the number of cells displaying chromosome fragmentation by the total number of mitotic cells, including cells undergoing chromosome fragmentation.

Assay [1] relates to cisplatin resistance cell line. Nature of the assay: SKY analysis of NCCAs after Bcl-2 inhibitor treatment. Type of assay: cell-based. An excerpt:
(§1) Following probe denaturation, hybridization and SKY detection, randomly selected mitotic figures were photographed and analyzed by SKY imaging software. Fifty to hundred SKY images were captured for each cell population to identify commonly shared karyotype features and to reveal the karyotypic diversity of these various cell populations. NCCAs were scored by identifying chromosomal numbers, chromosome translocations/large deletions or other types of abnormality detected within a given mitotic cell. There are two steps needed to score frequencies of NCCAs and CCAs. First, a 4% cutoff line is used to identify any specific recurrent karyotypes or CCAs. The frequency of a CCA is determined by calculating the number of cells displaying the same CCA divided by the total cells examined (50-100). Non-clonal karyotypes (NCCAs) are classified as having a frequency lower than 4%. The total frequencies of NCCAs of a given cell population is then calculated by using all cells displaying NCCAs divided by the total cells examined.
4. […] To examine this issue, TW-37, a small-molecule inhibitor drug that specifically binds to and inhibits Bcl-2 was used in a cisplatin resistance cell line that was previously tested. Under treatment conditions resulting in 50% cell death, surviving cells of two cell lines were followed with SKY analysis. […]

The test system of assay [2] is OV433 and TOV112D cell lines. Kind of assay: Selection of cisplatin resistant clones, karyotypes by SKY. Type of assay: cell-based. The settings on record: 6-9 months of selection by gradually increased concentrations. Here is the method:
3. Less specific targeted drugs can cause karyotypic changes: A well accepted mechanism of drug resistance acquisition is a specific gene mutation linked to a defined molecular pathway such as the cell death pathway, multiple drug resistance pathway or chromosomal machinery that is responsible for genome integrity. In order to test such a mechanism in the context of genome system evolution, well characterized ovarian cancer cell lines were treated with cisplatin, which is a drug commonly used to treat various types of cancers. The mechanism of this drug is thought to be binding and cross-linking of DNA by platinum complexes, which ultimately triggers apoptosis. The mechanisms of cisplatin resistance have been proposed to include changes in cellular uptake, increased detoxification of the drug, inhibition of apoptosis and increased DNA repair.
The karyotypes were examined by SKY and some key pathways possibly related to the acquisition of drug resistance in the clones were analyzed by western blots.

The next assay relates to MDA-MB-231. Nature of the assay: SKY analysis of NCCAs after proteasome inhibitor treatment. The settings on record: immediately following treatment. It counts as cell-based.
Description: as §1
(§2) 5. A comparison of specific and non-specific drugs that target the same pathway: In order to compare directly the effects of challenging the same molecular pathway with specific or nonspecific drug treatments with regard to genome system stability and evolution, the protein degradation pathway was chosen. Two proteasome inhibitors, Bortezomib (also named Velcade or PS-341) and MG132 were used. […] Compared to 132, Bortezomib is more specific. Two breast cancer cell lines, MDA-MB-231 and BT549, were used for this comparison. […] After a few weeks culture, there seemed to be no drastic changes in terms of the formation of new karyotypes.

Another assay relates to BT549. The assay is described as above. Type of assay: cell-based. Conditions: following treatment.
Description: as §1, §2

Another assay relates to HCT116 14-3-3−/− cells. Kind of assay: Mitotic catastrophe model, doxorubicin, scored for chromosome fragmentation. It counts as cell-based. The settings on record: low dose of doxorubicin. As for the experimental part: (§3) Induction of mitotic catastrophe. Mitotic catastrophe was induced as herein described. HCT116 14-3-3−/− cells were treated for up to 72 h with 2 μg/mL doxorubicin and HCT116 p53−/−. The cells were treated with 1 μg/mL aphidicolin for up to 96 h and were each harvested every 24 h. Cytogenetic preparations and cytospin preparations were made allowing for chromosomal and morphologic analysis.
(§4) The present mitotic cell death process differs from previously described mitotic catastrophe. Mitotic catastrophe has been loosely defined as cell death that results from aberrant mitoses. […] Not only do the definitions of mitotic catastrophe differ but there is also a lack of morphologic characterization of chromosomes from cells undergoing mitotic catastrophe. […] Cells were induced to undergo mitotic catastrophe according to published reports. Half of the cells were prepared using reported protocols and half were prepared according to standard cytogenetic procedure to score chromosome fragmentation frequency.

The next assay concerns cell population. Nature of the assay: High stress drug treatment, NCCAs and karyotypes. It counts as cell-based. The settings on record: immediately after treatment of a high dosage. An excerpt: First, the same cell line was used with both “high” and “low” levels of stress applied respectively. High stress was applied through chemo-therapy drug treatments (doxorubicin) (Dox) while low stress was generated by altering culture conditions. […] This was illustrated by the drastically altered karyotypes in every cell examined, which persisted until certain karyotypes became dominant (completing the transition from high levels of NCCAs to specific CCAs) following at least 6 weeks of culture in a drug free medium.

The target in another assay is T1, caspase-3 (Homo sapiens, UniProt P42574).
T1 construct: endogenous in cells; host or cells: HCT116
T1 sequence (P42574 29-175 limits assumed): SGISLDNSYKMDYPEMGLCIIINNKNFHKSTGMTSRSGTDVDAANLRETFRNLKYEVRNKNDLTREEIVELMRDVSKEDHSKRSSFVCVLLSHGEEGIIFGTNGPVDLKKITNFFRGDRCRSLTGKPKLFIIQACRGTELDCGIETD
T1 sequence (P42574 176-277 limits assumed): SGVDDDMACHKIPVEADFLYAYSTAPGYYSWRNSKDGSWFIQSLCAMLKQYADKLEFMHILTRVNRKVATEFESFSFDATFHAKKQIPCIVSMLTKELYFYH
Kind of assay: Caspase-3 colorimetric activity assay. Type of assay: cell-based. Conditions: 20 μmol/L, cells treated with colcemid and doxorubicin. Here is the method:
Caspase-3 activity. Caspase-3 activity was measured using the caspase-3 colorimetric assay kit from R&D Systems as herein described. HCT116 cells were treated for 8 h with colcemid with and without z-vad-fmk. Mitotic cells were then shaken off and treated with doxorubicin for an additional 6 h and 12 h.

The subject of the next assay is HCT116 cells. Kind of assay: Caspase inhibition during induced chromosome fragmentation. It counts as cell-based. Conditions: pretreatment with z-vad-fmk, then colcemid and doxorubicin, 6 and 12 h. As for the experimental part: Cytogenetic examination. Cells were harvested and cytogenetic slides were prepared using standard protocols. Slides were stained by Giemsa for scoring nuclear structures or stored at −20° C. for further characterization including spectral karyotyping (SKY) and antibody staining. The fragmentation index was determined by dividing the number of cells displaying chromosome fragmentation by the total number of mitotic cells, including cells undergoing chromosome fragmentation.
Caspase inhibition. Caspase activity was inhibited by treatment of HCT116 cells for 12 h with […] z-vad-fmk followed induction of chromosome fragmentation (by concurrent treatment with colcemid and 1 μg/mL doxorubicin) for 6 or 12 h in the presence of or after removal of z-vad-fmk. Following treatment, cytogenetic slides were made and scored.

In another assay the test system is ER stress pathways. Nature of the assay: ER stress agents, western blot and SKY analysis of NCCAs. Conditions: for NCCA levels: SKY analysis following a short period of culture; for ER stress pathway activation: western blot analysis following the drug treatment. Type of assay: cell-based. An excerpt: The inventors herein then determined to use a more defined stress condition to validate the link between the stress and the genome evolution. Since the endoplasmic reticulum (ER) has an important role in sensing cellular stress, and the ER stress is well studied, the inventors hypothesize that the defined ER stress will also generate elevated NCCAs leading to the formation of new karyotypes. Specific agents were used to target specific pathways of ER stress including tharpsigargin, tunicamycin and DTT. Tunicamycin interferes with glycalation and results in induction of ER stress. Tharpsigargin inhibits the endoplasmic reticulum calcium ATPase, and results in the release of calcium from the ER, and DTT induces reductive stress through its activity in breaking disulfide bonds which leads to induction of the unfolded protein response. […] As illustrated, the specific ER stress pathways were indeed active in three treatments.
(In general: Immunoblotting shows a protein as a band on a membrane.)

Assay [3] concerns HCT116 p53−/− cells. Nature of the assay: Mitotic catastrophe model, aphidicolin, scored for chromosome fragmentation. It counts as cell-based. The settings on record: for mitotic fraction: conventional cytogenetic analysis. As for the experimental part: as §3, §4
The test system of assay [4] is HCT116 p53−/− cells. The settings on record: 72 h, reported; cited from earlier work.

This is an account of results in patent US20100233701A1, “Use of non-clonal chromosomal aberrations for cancer research and clinical diagnosis” (priority 2008, published 2010).

Peptide text beside a SMILES is read from it. * marks the point of attachment. Cbz = O=C(OCc1ccccc1)*; CH2F = FC*

In the case of `CN(Cc1cnc2nc(N)nc(N)c2n1)c1ccc(C(=O)N[C@@H](CCC(=O)O)C(=O)O)cc1` [methotrexate], in the assay on mitotic cells, the “induction of chromosome fragmentation” value was “can induce chromosome fragmentation”.
With `CC(C)c1ccccc1Cc1cc(C(=O)Nc2ccc(S(=O)(=O)c3ccccc3C(C)(C)C)cc2)c(O)c(O)c1O` [TW-37], the “formation of new karyotypes” value in assay [1] (after a few weeks of culture) was “new stable karyotypes were detected”. The “frequencies of NCCAs” value in assay [1] (treatment conditions resulting in 50% cell death, surviving cells of two cell lines) is “increased”.
With `N.N.[Cl][Pt][Cl]` [cisplatin], the “karyotypes of drug resistant clones” value in assay [2] is on record as “drastically different karyotypes”.
`CC(C)C[C@H](NC(=O)[C@H](Cc1ccccc1)NC(=O)c1cnccn1)B(O)O` [Bortezomib]: in the assay on MDA-MB-231, the NCCAs result was “showed an increase in NCCAs”. Moreover, in the assay on BT549, the NCCA frequencies entry is “failed to generate increased NCCA frequencies”.
As to `COc1cccc2c1C(=O)c1c(O)c3c(c(O)c1C2=O)C[C@@](O)(C(=O)CO)C[C@@H]3O[C@H]1C[C@H](N)[C@H](O)[C@H](C)O1` [doxorubicin], the “induction of chromosome fragmentation” value with mitotic cells is “can induce chromosome fragmentation”. In addition, the “chromosome fragmentation in interphase cells” value in the assay on mitotic cells (interphase cells, doxorubicin and colcemid preceded by a double thymidine block, up to 24 h) was “no chromosome fragmentation was observed”. In the assay with mitotic cells (mitotic shake-off cells arrested with colcemid, concurrent doxorubicin, within 12 h), the “mitotic cells showing a degree of chromosome fragmentation” value was approximately 100%. Besides, the “phosphorylated H3 staining” value in the assay on HCT116 14-3-3−/− cells is listed as “only a very small fraction of cells show any positive signal”. Further, in the assay with HCT116 14-3-3−/− cells (conventional cytogenetic protocols), the chromosome fragmentation entry is given as “chromosome fragmentation was not evident”. Besides, the “level of NCCAs” value in the assay with cell population is given as “a high level of NCCAs was quickly detected”.
As to `COC(=O)C[C@H](NC(=O)[C@H](C)NC(=O)[C@@H](NC(=O)OCc1ccccc1)C(C)C)C(=O)CF` [z-vad-fmk] (Cbz-Val-Ala-Asp(OMe)-CH2F), on caspase-3, the caspase-3 reactivity entry is “largely inhibited”. Also, the “chromosome fragmentation frequency upon caspase inhibition” value in the assay on HCT116 cells is on record as “not significantly altered”.
As to tunicamycin, in the assay on ER stress pathways, the NCCA levels result is listed as “elevated NCCAs were observed” and the “ER stress pathway activation” value is “indeed active”.
Regarding `C[C@@]1(CO)[C@H](O)CC[C@@]2(C)[C@H]1CC[C@H]1C[C@@H]3C[C@@]12CC[C@]3(O)CO` [aphidicolin], the values for the mitotic fraction with HCT116 p53−/− cells [3] (72 h) and in the assay on HCT116 p53−/− cells [3] (96 h) were 3.2% and 5.4%, respectively. For the same compound, in the assay with HCT116 p53−/− cells [3] (96 h), the chromosome breaks result is “evident in the majority of chromosome spreads”. Besides, in the assay on HCT116 p53−/− cells [4], the cells died is 40%.
Turning to `O[C@@H](CS)[C@@H](O)CS` [DTT], in the assay with ER stress pathways, the NCCA levels entry was “elevated NCCAs were observed” and the “ER stress pathway activation” value is listed as “indeed active”.
As for `CC(C)C[C@@H](C=O)NC(=O)[C@H](CC(C)C)NC(=O)[C@H](CC(C)C)NC(=O)OCc1ccccc1` [MG132] (Cbz-Leu-Leu-Leu-aldehyde), the NCCAs entry in the assay with MDA-MB-231 is recorded as “showed an increase in NCCAs”. Further, the NCCA frequencies result in the assay with BT549 was “failed to generate increased NCCA frequencies”.
With tharpsigargin, in the assay on ER stress pathways, the NCCA levels result is given as “elevated NCCAs were observed” and the “ER stress pathway activation” value is “indeed active”.
